In patent publication US4495199A, “Dioxolanic amine with pharmacological activity, its method of preparation, the pharmaceutical compositions containing same and their use in human medicine” (priority 1982, dated 1985):
Counter-ions that a name gives are not always drawn.

What was measured:
[1] = system: fibrillation by chloroform in the male NMRI mouse; assay: Anti-arrhythmic activity, fibrillation by chloroform in the mouse, p.o.; assay type: in vivo
Source text: Tables 5 and 6 show the anti-arrythmic activity of the ITA 362 in the male NMRI mouse by oral and intraperitoneal route using the fibrillation test by chloroform in the mouse. (V. W. Lawson, J. Pharmacol. Exp. Ther. 160, 22, 1968; B. Vargaftig, J. L. Coignet. Eur.J. Pharmacol. 6, 49, 1969).
The activity of the two forms of maleate described in the example 4 were studied, with that in the table subtitled as isomer A corresponding to the first fraction obtained in the aforementioned example, and isomer B corresponding to the second fraction.

[2] = Hygroscopicity; assay type: physicochemical
[3] = system: mouse; assay: Acute toxicity, oral, mouse; assay type: in vivo
Procedure: (§1) The respective lethal dose 50 was calculated according to the method of Litchfield and Wilcoxon (Jl. Pharmacol. Exptl. 96 99, 1949).

[4] = system: rat; assay: Acute toxicity, oral, rat; assay type: in vivo
Procedure: as §1

[5] = system: hindquarters of rats; assay: Vasodilatory activity, perfusion of the hindquarters of rats with a hyperpotasemic solution; parameters: species or system rat; details: summary statement
Source text: In the Table 3 is shown the results of the vasodilatory activity of the ITA 362 in the perfusion test of the hindquarters of rats with a hyperpotasemic solution. (F. N. Fastier, F. M. Smirk. Jl, Pharmacolog. Exp. Therapy. 89. 256, 1947).

[6] = system: T wave in the conscious dog; assay: Anti-angina activity, amplitude increase protection of the T wave by vasopression in the conscious dog; assay type: in vivo
Source text: The antiangina activity was also compared with that of the nitroglycerine by means of the amplitude increase protection test of the T wave for vasopression in the conscious dog. (A. Lindner, M. London, G. Werner, Scheiz. Med. Wsohr. 83, 360, 1953; J. Papp. L. Szekeres. Arch. Int. Pharmacodyn, 160, 1, 1966).

CCCCNCC1COC(c2ccc(Cl)cc2)(c2cc3ccccc3o2)O1 (single isomer, unassigned) [ITA 362 maleate (isomer A)]
ED50 ([1]; Mus musculus, po, read-out: ED50 and confidence limits p < 0.05, p.o., dose column in mg/kg): 35.4 mg/kg

CCCCNCC1COC(c2ccc(Cl)cc2)(c2cc3ccccc3o2)O1 (stereo not drawn) [ITA 362 citrate]
% protection versus fibrillation ([1]; 3.125 mg/kg p.o.): 10% | hygroscopicity [2]: highly hydroscopic

CCCCNCC1COC(c2ccc(Cl)cc2)(c2cc3ccccc3o2)O1 (stereo not drawn) [ITA 362 maleate, 2-(2'-benzofuranil)-4-butylaminomethyl-2-p-chlorophenyl-1,3-dioxolane, maleate]
LD50 [3]: > 4000 mg/kg | LD50 ([4]; rat, oral): > 4000 mg/kg

CCCCNCC1COC(c2ccc(Cl)cc2)(c2cc3ccccc3o2)O1 (stereo not drawn) [ITA 362, 2-(2'-benzofuranil)-4-n-butylaminomethyl-2-p-chlorophenyl-1,3-dioxolan]
vasodilatory activity (in words) [5]: intense | anti-arrhythmic activity (in words) ([1]; summary statement): intense | Antiangina activity relative to nitroglycerine ([6]; 1 mg/kg i.v. vs nitroglycerine 0.4 mg/kg): greater than that of nitroglycerine | anti-angina activity (in words) ([6]; summary statement): intense | toxicity (in words) ([4]; summary statement, species not specified): low toxicity

O=[N+]([O-])OCC(CO[N+](=O)[O-])O[N+](=O)[O-] [Nitroglycerine, reference compound]
quot. Control/treatment ([6]; 0.4 mg/kg i.v.): 1.520 | % Prot. ([6]; 0.4 mg/kg i.v., t student n.s.): 28.9%
